Test results published in article PMC10385579, “Design, Synthesis, and Biological Evaluation of Indole-2-carboxamides as Potential Multi-Target Antiproliferative Agents” (Pharmaceuticals, 2023).

Assays:
Bcl-2 = Bcl-2 level assay in A-549 cells; format: cell-based, human; conditions: for Bcl-2 Conc: control 5; for Bcl-2 Fold Reduction: vs control
Procedure: Compounds Va and Vg were explored further for their impact on caspase-8, Bax, and Bacl-2 levels against a human epithelial cancer cell line (A-549) using doxorubicin as a reference. See Supplementary Materials. […]
4.2.8. Bcl-2inhibition assay
Mix all reagents thoroughly without foaming before use. Wash the microwells twice with approximately 300 μL Wash Buffer per well with thorough aspiration of microwell contents between washes. Take caution not to scratch the surface of the microwells. After the last wash, empty the wells and tap microwell strips on absorbent pad or paper towel to remove excess Wash Buffer. Use the microwell strips immediately after washing or place upside down on a wet absorbent paper for not longer than 15 minutes. […] Add 100 μL of Sample […]
Diluent in duplicate to all standard wells and to the blank wells. Prepare standard (1:2 dilution) in duplicate ranging from 32 ng/mL to 0.5 ng/mL. Add 100 μL of Sample Diluent, in duplicate, to the blank wells. Add 80 μL of Sample Diluent, in duplicate, to the sample wells. Add 20 μL of each Sample, in duplicate, to the designated wells. Add 50 μL of diluted biotin-conjugate to all wells, including the blank wells. Cover with a plate cover and incubate at room temperature, on a microplate shaker at 100 rpm if available, for 2 hours. Remove plate cover and empty the wells.
Wash microwell strips 3 times as described in step 2. Add 100 μL of diluted Streptavidin-HRP to all wells, including the blank wells. Cover with a plate cover and incubate at room temperature, on a microplate shaker at 100 rpm if available, for 1 hour. Remove plate cover and empty the wells.
Wash microwell strips 3 times as described in step 2. Proceed to the next step. Pipette 100 μl of mixed TMB Substrate Solution to all wells, including the blanks. Incubate the microwell strips at room temperature (18° to 25°C) for about 15 minutes, if available on a rotator set at 100 rpm.
Avoid direct exposure to intense light. The point, at which the substrate reaction is stopped, is often determined by the ELISA reader. Many ELISA readers record absorbance only up to 2.0
O.D. Therefore, the color development within individual microwells must be watched by the person running the assay and the substrate reaction stopped before positive wells are no longer properly detectable. Stop the enzyme reaction by quickly pipetting 100 μL of Stop Solution into each well, including the blank wells. It is important that the Stop Solution is spread quickly and uniformly throughout the microwells to completely inactivate the enzyme. Results must be read immediately after the Stop Solution is added or within one hour if the microwell strips are stored at 2 - 8°C in the dark. Read absorbance of each microwell on a spectrophotometer using 450 nm as the primary wavelength.

caspase-3 = test: Caspase 3 assay in A-549 cells; format: cell-based, human; conditions: for Caspase-3 Conc: untreated control 66 pg/mL
Procedure: Caspases play a crucial function in the induction and completion of apoptosis. Caspase-3 is an essential caspase that cleaves different proteins in cells, resulting in apoptosis. […]
4.2.5. Caspase-3 activation assay
Allow all reagents to reach room temperature before use. Gently mix all liquid reagents prior to use. Determine the number of 8-well strips needed for the assay. Insert these in the frame(s) for current use. Add 100 μl of the Standard Diluent Buffer to the zero standard wells. Well(s) reserved for chromogen blank should be left empty. Add 100 μl of standards and controls or diluted samples to the appropriate microtiter wells. The sample dilution chosen should be optimized for each experimental system. Tap gently on side of plate to mix. Cover wells with plate cover and incubate for 2 hours at room temperature. Thoroughly aspirate or decant solution from wells and discard the liquid, Wash wells 4 times. Pipette 100 μl of Caspase-3 (Active) Detection Antibody solution into each well except the chromogen blank(s). Tap gently on the side of the plate to mix. Cover plate with plate cover and incubate for 1 hour at room temperature. Thoroughly aspirate or decant solution from wells and discard the liquid, Wash wells 4 times. Add 100 μl Anti-Rabbit IgG HRP Working Solution to each well except the chromogen blank(s). Prepare the working dilution as described in Preparing IgG HRP. Cover wells with the plate cover and incubate for 30 minutes at room temperature. Thoroughly aspirate or decant solution from wells and discard the liquid. Wash wells 4 times. Add 100 μl of Stabilized Chromoge n to each well. The liquid in the wells will begin to turn blue. Incubate for 30 minutes at room temperature and in the dark. The incubation time for chromogen substrate is often determined by the microtiter plate reader used. Many plate readers have the capacity to record a maximum optical density (O.D.) of 2.0. The O.D. values should be monitored, and the substrate reaction stopped before the O.D. of the positive wells exceeds the limits of the instrument. The O.D. values at 450 nm can only be read after the Stop Solution has been added to each well. If using a reader that records only to 2.0 O.D., stopping the assay after […]
Add 100 μl of Stop Solution to each well. Tap side of plate gently to mix. The solution in the wells should change from blue to yellow. Read the absorbance of each well at 450 nm having blanked the plate reader against a chromogen blank composed of 100 μl each of Stabilized Chromogen and Stop Solution. Read the plate within 2 hours after adding the Stop Solution. Use a curve fitting software to generate the standard curve. A four-parameter algorithm provides the best standard curve fit. Read the concentrations for unknown samples and controls from the standard curve. Multiply value(s) obtained for sample(s) by the appropriate dilution factor to correct for the dilution in step 3. Samples producing signals greater than that of the highest standard should be diluted in Standard Diluent Buffer and reanalyzed.

Row | melting point | SMILES | Bcl-2 Conc (Bcl-2) | Bcl-2 Fold Reduction (Bcl-2) | Caspase-3 Conc (caspase-3) | Caspase-3 Fold Change (caspase-3; vs untreated control)
1 | 112 to 114 °C | O=C(NCC(c1ccccc1)c1c(-c2ccccc2)[nH]c2ccccc12)c1cc2cc(Cl)ccc2[nH]1 (stereo not drawn) [Compound Va, 5-Chloro-N-(2-phenyl-2-(2-phenyl-1H-indol-3-yl)ethyl)-1H-indole-2-carboxamide] | 0.75 ng/mL | 7 | 726 ± 6 pg/mL | 
2 | 140 to 142 °C | CO/C=C/c1c(C(=O)NCC(c2ccccc2)c2c(-c3ccccc3)[nH]c3ccccc23)[nH]c2ccc(Cl)cc12 (stereo not drawn) [Compound Vg, (E)-5-Chloro-3-(2-methoxyvinyl)-N-(2-phenyl-2-(2-phenyl-1H-indol-3-yl)ethyl)-1H-indole-2-carboxamide] | 0.85 ng/mL | 6 | 528 ± 5 pg/mL | ~8
